Measured values taken from paper PMC11740271 (Annals of neurology, 2024).
Values joined by “and” are separate entries in the source; they are usually repeats but may differ in a detail not shown here. Equal entries are not always repeated. Where two headings read alike, the source gives them in different places.

Experiments:
[1] = tested on: 6 Hz (44 mA) seizures; experiment: 6 Hz; type: in vivo, mice; conditions: Mus musculus, ip, 1 h, read-out: ED50, 6 Hz (44 mA)
[2] = tested on: minimal motor impairment (ataxia); experiment: Minimal motor impairment; type: in vivo, rats; conditions: i.p.
[3] = Minimal motor impairment; type: in vivo, rats; conditions: Sprague-Dawley, rat, in vivo, ip
[4] = tested on: GLT-1; experiment: GLT-1 expression in mouse cortex; type: in vivo; conditions: C57BL/6 mice
[5] = tested on: GLT-1; experiment: GLT-1 expression in mouse hippocampus; type: in vivo; conditions: C57BL/6J mice
[6] = tested on: GLT-1; experiment: GLT-1 expression in neuron-glia cultures; type: cell-based, rat; conditions: 14 DIV neuron-glia cultures, 72 h
[7] = tested on: EAAT1; conditions: cited from earlier work
[8] = tested on: corneal kindled seizures; experiment: Corneal kindled mouse model; type: in vivo, mice; conditions: ip, read-out: ED50, CKM
[9] = tested on: hippocampal paroxysmal discharges (HPDs); experiment: Intra-hippocampal kainate mouse; type: in vivo; conditions: male mice, 50 mg/kg i.p., 1 h post-drug, mean ± SEM
[10] = tested on: EAAT3; conditions: cited from earlier work
[11] = tested on: autonomic, neuromuscular, sensorimotor and behavioral functions; experiment: Modified Irwin test in rats; type: in vivo; conditions: male rats, i.p.
[12] = tested on: motor function and coordination; experiment: Rotarod test in mice; type: in vivo; conditions: male mice (C57BL/6J), i.p., PT 0.5 h; 95% CI in parentheses
[13] = tested on: TMEV-induced seizures; conditions: mice; doses as in Table S14; cited from earlier work
[14] = tested on: corneal kindled seizures; conditions: mice, i.p.; from literature ED50/TD50, ref as in Table S11; cited from earlier work
[15] = tested on: 6 Hz (44 mA) seizures; conditions: mice, i.p.; from literature ED50/TD50, ref as in Table S11; cited from earlier work

C[C@H](C(=O)NCc1ccccc1)N1C(=O)CCC1=O [(R)-AS-1, (R)-N-benzyl-2-(2,5-dioxopyrrolidin-1-yl)propanamide]
ED50 [1]: 65.9 mg/kg | N/F with adverse effects, TOX (MMI) ([2]; female rats, 500 mg/kg, […]): 2/8 | abnormal gait, animals affected / tested ([2]; female rats, 500 mg/kg, […]): 3/8 | tremors, animals affected / tested ([2]; female rats, 500 mg/kg, […]): 6/8 | slight ataxia, share of rats ([2]; female rats, 500 mg/kg, at 0.5 h and 1 h): 12.5% | N/F with adverse effects, TOX (MMI) ([2]; male rats, 300 mg/kg, 1 h): 1/8 | N/F with adverse effects, TOX (MMI) ([2]; male rats, 300 mg/kg, […]): 1/8 | TD50 at […] ([3]; female): > 500 mg/kg | TD50 at 0.5 h ([3]; male): 254 mg/kg | GLT-1 protein expression in brain lysates (quantitative Western blot) ([4]; 100 mg/kg i.p. BID for 7 days): did not show any alteration | GLT-1 expression in the hippocampus (qualitative confocal microscopy) ([5]; 100 mg/kg i.p. BID for 7 days): did not alter | GLT-1 protein expression (Western blotting) ([6]; 100 nM and 100 μM): did not alter | interaction with EAAT1 [7]: does not interact | ED50 ([8]; 1 h): 38.2 mg/kg | ED50 ([8]; […]): 40.5 mg/kg | HPD count as percent of baseline (peak effect) [9]: 52.81 ± 13.45% and ~ 50% | interaction with EAAT3 [10]: does not interact | adverse events at later time points (Irwin test) ([11]; 300 mg/kg, 2, 4, and 24 h): no adverse events | staggering, share of rats (Irwin test) ([11]; 300 mg/kg, 0.5 h, 1/4): 25% | ataxia, share of rats (Irwin test) ([11]; 300 mg/kg, 0.5 h, 2/4): 50% | ataxia, share of rats (Irwin test) ([11]; 300 mg/kg, 1 h, 1/4): 25% | staggering, share of rats (Irwin test) ([11]; 300 mg/kg, 1 h, 2/4): 50% | anesthesia, share of rats (Irwin test) ([11]; 300 mg/kg, […], 2 rats out of 4): 50% | tolerability in the Irwin test ([11]; doses of 100, 150, and 250 mg/kg, all time points): very well tolerated | TD50, rotarod test [12]: 168.2 (117.4–242.0) mg/kg

C=C(C)[C@@H]1CCC(C)=C[C@H]1c1c(O)cc(CCCCC)cc1O [Cannabidiol]
effect in the TMEV model [13]: effectively reduced TMEV-induced seizures

NC(=O)N1c2ccccc2C=Cc2ccccc21 [Carbamazepine]
effect in the TMEV model [13]: ineffective

CCOC(=O)Nc1ccc(NCc2ccc(F)cc2)cc1N [Ezogabine]
PI, CKM (reference ASMs) [14]: 1.5

COC[C@@H](NC(C)=O)C(=O)NCc1ccccc1 [Lacosamide]
effect in the TMEV model [13]: significantly reduced seizure burden

Nc1nnc(-c2cccc(Cl)c2Cl)c(N)n1 [Lamotrigine]
PI, CKM (reference ASMs) [14]: 1.0 | effect in the TMEV model [13]: ineffective

CC[C@@H](C(N)=O)N1CCCC1=O [Levetiracetam]
effect in the TMEV model [13]: significantly reduced seizure burden

Cc1ccsc1C(=CCCN1CCC[C@@H](C(=O)O)C1)c1sccc1C [Tiagabine]
PI, 6 Hz, 44 mA (reference ASMs) [15]: 6 | effect in the TMEV model [13]: significantly reduced seizure burden

CCCC(CCC)C(=O)O [Valproate]
effect in the TMEV model [13]: significantly reduced seizure burden

CN(C)CCC=C1c2ccccc2CCc2ccccc21 [amitriptyline, reference compound]
GLT-1 protein expression in brain lysates (quantitative Western blot) ([4]; 10 mg/kg i.p. for 7 days, P < 0.05): significant increase | GLT-1 signal in the hippocampus (qualitative confocal microscopy) ([5]; 10 mg/kg i.p. QD for 7 days): strong increase

CO/N=C(\C(=O)N[C@@H]1C(=O)N2C(C(=O)O)=C(CSc3nc(=O)c(=O)[nH]n3C)CS[C@H]12)c1csc(N)n1 [ceftriaxone, reference compound]
GLT-1 protein expression (Western blotting) ([6]; 1 mM): significantly increased
